Measurements published in article PMC12126525, “Mechanism of ATP hydrolysis in the Hsp70 BiP nucleotide-binding domain” (Nature Communications, 2025).
“Also recorded” adds a separate entry of the source. Values belong to the compound of their own block, whether it stands above or below them.

Experiments:
BiP NBD [1] = target: T1, BiP NBD (Homo sapiens, UniProt P11021); experiment: Equilibrium 2D methyl-TROSY NMR fingerprint spectra with ligands (ATP analogs, calcium); type: binding; design: His6 (N, cleaved yes); made in house; host or cells: E. coli BL21-(DE3)-Lemo, pET28a vector; details: 2D methyl-TROSY compared with in-cyclo states
Method: First, we probed calcium binding to ADP-bound NBD by NMR equilibrium experiments. […] (Supplementary Fig. 15d). […] (Supplementary Fig. 16).
AMPPNP (adenylyl imidodiphosphate; Jena-bioscience), AMPPCP (adenylyl methylenediphosphate; Jena-bioscience) and ATP-γ-S (adenosine 5’-(gamma-thiotriphosphate; Jena-bioscience) were dissolved in the HKM reaction buffer (25 mM HEPES, pH 7.5, 150 mM KCl and 10 mM MgCl2) at a concentration of 50 mM directly before to be mixed with the BiP NBD sample. Samples were prepared fresh before each use to minimize the known instability of these analogs that undergo slow hydrolysis in solution.
Supplementary Figure 7. Analysis of the BiP NBD ATP-bound state. a, Combined methyl chemical shift differences between the APD·Pi-bound and the ATP-bound state of BiP NBD in-cyclo. The magnitude of 1 and 1.5 SDs are indicated by an orange and a red line, respectively. b, Overlay of 9 crystal structures of BiP NBD in presence of different nucleotides (colored sticks). c, Backbone root means square deviation (RMSD - Å) between the structures shown in (b) and the NBD apo state (PDB 3LDN). d, 2D [13C,1H]-TROSY spectrum of methyl-labeled BiP NBD in equilibrium with the ATP analogs AMPPNP (green), AMPPCP (orange) or ATP-γ-S (yellow), overlayed with the spectrum in-cyclo (pink).
State- and sequence-specific resonance assignments are indicated for the ADP-bound (light blue), ADP·Pi-bound (dark blue) and the ATP-bound (red) states in-cyclo.
(§1) (1 picture or pasted object on this page, not shown here)
Supplementary Figure 15. Mapping of calcium binding to BiP NBD. a, Selected details from published structures of BiP. From left to right: yeast BiP(NBD)-Mg2+-ADP (PDB 3QFU), human BiP(NBD)-Mg2+- ADP·Pi (PDB 5EVZ), human BiP(NBD)-Ca2+-ADP (PDB 6ZYH). b, Selected sections of 2D [13C,1H]-methyl-TROSY spectra of residue val50cg1 or Ile52cd1 for the equilibrium experiments of NBD apo (grey), NBD with 5 mM Pi (green), NBD with 1 mM ADP (light blue), NBD with 1 mM ADP·Pi (dark blue), NBD with 1 mM ADP-Ca2+ (dark-pink).and NBD with 3.3 mM calcium ([Mg2+]/[Ca2+]=3) (light-pink). c, Combined methyl chemical shift differences between the BiP NBD APD and the ADP-Ca2+-bound state. The magnitude of 1 and 1.5 SDs are indicated by a light blue and a dark blue line. d, Structure of NBD in […]
the ADP-Ca-bound state (PDB 6ZYH).

BiP = details: NBD·MABA-ATP ⇌ NBD + MABA-ATP; cited from earlier work
BiP NBD [2] = target: T1, BiP NBD; experiment: NMR experiment with MABA-ATP (no E1, no E2) and kinetic fit of the MABA-ATP/MABA-ADP functional cycle; type: biochemical; design: His6 (N, cleaved yes); made in house; host or cells: E. coli BL21-(DE3)-Lemo, pET28a vector; details: for species: Supplementary Fig 13b
Method: […] After the equilibration time 2D [^13C,^1H]-HMQC spectra were recorded in interleaved mode with 1D ^1H NMR spectra. […] The same setup was used for the alternative experiments by including or excluding E1 and/or E2. When E1 was not included, the ratio of the ATP/ADP NMR signals was used to monitor their relative concentrations.
as §1

Hsp70 = tested on: Hsp70; design: method as in PMID 8226982; details: optimal range of concentration between 100 and 150 mM; cited from earlier work
[3] = MABA-ATP instead of ATP, reactions 1MABA, 2MABA, 3

T1 sequence (P11021 19-406): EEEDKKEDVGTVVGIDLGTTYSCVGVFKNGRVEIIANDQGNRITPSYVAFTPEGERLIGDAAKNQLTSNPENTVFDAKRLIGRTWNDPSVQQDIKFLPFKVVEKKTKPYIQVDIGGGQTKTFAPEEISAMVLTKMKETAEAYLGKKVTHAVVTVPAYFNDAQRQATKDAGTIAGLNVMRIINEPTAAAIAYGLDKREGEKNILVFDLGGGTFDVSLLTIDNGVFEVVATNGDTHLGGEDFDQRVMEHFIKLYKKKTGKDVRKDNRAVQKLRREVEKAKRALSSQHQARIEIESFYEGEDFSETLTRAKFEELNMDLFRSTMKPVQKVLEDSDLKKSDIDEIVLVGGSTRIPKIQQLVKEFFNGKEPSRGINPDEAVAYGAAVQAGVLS

Compound: Nc1ncnc2c1ncn2[C@@H]1O[C@H](COP(=O)(O)OP(=O)(O)NP(=O)(O)O)[C@@H](O)[C@H]1O [AMPPNP, adenylyl imidodiphosphate]
NMR fingerprint of BiP NBD with the ligand (BiP NBD [1]): resemble the ADP·Pi-bound state rather than the ATP-bound state

koff (BiP NBD [2]; [3]): 0.035 ± 0.008 s⁻¹
kon (BiP NBD [2]; [3]): 37000 ± 6000 M⁻¹ s⁻¹
Kd (BiP NBD [2]; MABA-ATP instead of ATP, reactions 1MABA, 2MABA, 3: release to apo NBD, T = 37°C): 0.95 ± 0.1 µM
kcat (BiP NBD [2]; NBD·MABA-ATP → NBD·MABA-ADP·Pi): 0.036 s⁻¹
Compound: CNc1ccccc1C(=O)NCCCCNc1nc2c(N)ncnc2n1[C@@H]1O[C@H](COP(=O)(O)OP(=O)(O)OP(=O)(O)O)[C@@H](O)[C@H]1O [MABA-ATP, 8-[(4-Amino)butyl]-amino-ATP-MAN]
Kd (BiP): 1 µM
koff1 (MABA-ATP) (BiP): 0.031 s⁻¹
kon (BiP): 32000 M⁻¹ s⁻¹

Compound: Nc1ncnc2c1ncn2[C@@H]1O[C@H](CO[P@](=O)(O)O[P@](=O)(O)O[P@@](=O)(O)S)[C@@H](O)[C@H]1O [ATP-γ-S, adenosine 5’-(gamma-thiotriphosphate)]
NMR fingerprint of BiP NBD with the ligand (BiP NBD [1]): resemble the ADP·Pi-bound state rather than the ATP-bound state; also recorded: showed a peak splitting, indicating the formation of a heterogenous mix of conformations

Compound: Nc1ncnc2c1ncn2[C@@H]1O[C@H](COP(=O)(O)OP(=O)(O)CP(=O)(O)O)[C@@H](O)[C@H]1O [AMPPCP, adenylyl methylenediphosphate]
NMR fingerprint of BiP NBD with the ligand (BiP NBD [1]): resemble the ADP·Pi-bound state rather than the ATP-bound state

species (BiP NBD [2]; time 4 min): 350 µM
species (BiP NBD [2]; time 10 min): 508 µM
species (BiP NBD [2]; time 16 min): 626 µM
species (BiP NBD [2]; time 22 min): 712 µM
species (BiP NBD [2]; time 28 min): 800 µM
species (BiP NBD [2]; time 34 min): 840 µM
species (BiP NBD [2]; time 40 min): 889 µM
species (BiP NBD [2]; time 46 min): 907 µM
species (BiP NBD [2]; time 52 min): 929 µM
species (BiP NBD [2]; time 58 min): 924 µM
species (BiP NBD [2]; time 64 min): 932 µM
Compound: CNc1ccccc1C(=O)NCCCCNc1nc2c(N)ncnc2n1[C@@H]1O[C@H](COP(=O)(O)OP(=O)(O)O)[C@@H](O)[C@H]1O [MABAADP]

Compound: [K+] [potassium]
increase of the Hsp70 ATP hydrolysis activity (Hsp70): 5 fold
